Experimental findings from patent publication US8735443B2, “Method of treating diabetes-related vascular complications” (Kuwait University, priority 2008, dated 2014) are described below.

The subject of assay [1] is control fibroblasts (CFs). Put plainly: Cell viability after hydrogen peroxide (Cell Counting Kit-8), control fibroblasts. The format is cell-based, rat. Conditions: lipoic acid 500 μM, Nrf2-dependent. From the text: To determine the effect of α-lipoic acid on isolated cells from normal and diabetic rats, primary rat fibroblasts were derived from dorsal skin biopsies performed on four diabetic Coto Kakizaki rats (DFs) and four age-matched (12-14 months) and sex-matched (female) Wistar control rats (CFs). After sterilization in povidine solution, the rat skin was washed in sterile water and rinsed in 70% ethanol in phosphate-buffered saline (PBS). The epidermis and dermis were separated following overnight incubation in 0.25% Trypsin/EDTA at 4° C. Samples were washed, diced and digested for thirty minutes at 37° C. in collagenase type I (250 U/ml) dissolved in Dulbecco's modified Eagle medium (DMEM; Invitrogen) containing penicillin (100 U/ml), 2 mM L-glutamine and 26 mM HEPES. After collagenase treatment, the cells were dislodged, centrifuged and resuspended in medium supplemented with 10% fetal bovine serum. The cells were grown under standard conditions, and the medium was changed every three to four days. Control and diabetic fibroblasts were grown under normo-glycemic conditions (5.5 mM glucose) and used in experiments at passage 3 to 5.
Fibroblasts were seeded at 1×10^4 cells/well on a 96-well plate. […] Quantification of cell viability was assessed using a Cell Counting Kit-8 (Dojindo, Kumamoto, Japan). […]

In a further assay the test system is nox-1. Put plainly: Aortic mRNA expression by real-time PCR, nox-1. The class given is in vivo, rat. Particulars: aorta of LA-treated GK rats. On the procedure: Further, with regard to quantitative real-time polymerase chain reactions (PCR) in the study, total RNA from the arterial samples was isolated using TRIZOL® reagent, and RNA integrity was verified by agarose gel electrophoresis and quantified by spectrophotometry. Reverse transcription reaction of total RNA (5 μg) was performed using a superscript 111 first-strand synthesis system. Quantitative real-time PCR was performed using fast SYBR Green QPCR. […]
The housekeeping gene beta-actin was used for internal normalization. Fidelity of the PCR reaction was determined by melting temperature analysis. PCR efficiency for each primer pair was determined by quantitating amplification with increasing concentration of template cDNA. […] RNA expression of target genes was calculated based on the real-time PCR efficiency E and the threshold crossing point (CP) and is expressed relative to the reference gene beta-actin.
A general note: Quantitative PCR measures a nucleic acid by following its amplification.

For a further assay, the system named is IL-6. In words: Aortic mRNA expression by QRT-PCR, IL-6. The format is in vivo, rat. Conditions: GK rats, LA therapy. On the procedure: An expression of a number of inflammatory markers, including IL-6 and ICAM-1, were measured in control, diabetic and LA-treated diabetic vessels. The results confirmed marked elevation in the vascular expression of both […] and ICAM-1 during diabetes, as shown in FIGS. 11A and 11B. […] Aortic expression of IL-6 is shown in FIG. 11A and aortic expression of intracellular adhesion molecule (ICAM-1) is shown in FIG. 11B. Both were determined using QRT-PCR based techniques.

A further assay deals with protein-bound carbonyls. In words: Aortic content of protein-bound carbonyls. Particulars: aorta of LA-treated GK rats.
The subject of assay [2] is NF-κB. Put plainly: NF-κB expression by western blotting, HEK-499. The format is cell-based. Particulars: HEK-499 cells exposed to α-lipoic acid. From the text:
(§1) Alpha-lipoic acid increased HEK-499 cells, which were engineered to be resistant to chemotherapies and radiotherapies by depleting Raf Kinase inhibitory protein resistance to lethal doses of cisplatin, a chemical used in cancer therapy.
(In general: In western blotting, separated proteins are transferred to a membrane and probed.)

The next assay has as its system NAD(P)H oxidase. In words: NAD(P)H oxidase activity in aortic homogenates (lucigenin photoemission). The format is biochemical, rat. Conditions: GK rats after LA therapy.
The test system of assay [3] is NF-κB. In words: NF-κB expression by western blotting, HEK-293. The format is cell-based. Conditions: HEK-293 (parental cells) exposed to α-lipoic acid.
Excerpt: as §1

A further assay relates to aortic tissue. In words: Aortic superoxide production, lucigenin-enhanced chemiluminescence. The class given is in vivo, rat. Conditions: GK rats, LA 50 mg/kg i.p. daily for four weeks. The procedure: In the study, with regard to measurement of vascular superoxide anion formation, O2^− concentration in aortic tissue was determined using a lucigenin-enhanced chemiluminescence method, and the resulting data were further confirmed by a cytochrome c-based technique. Segments of the thoracic aorta were placed into 2 ml Krebs-Henseleit buffer (KHB, pH 7.4), and prewarmed to 37° C. for one hour. Immediately before measurement, rings were transferred to scintillation vials containing KHB with 5 μmol/L lucigenin and the O2^− generated chemiluminescence was recorded for five minutes with a scintillation counter. The amount of O2^− produced was quantified using a standard curve of O2^− generation by xanthine/xanthine oxidase and the data are expressed as nmol per min, per mg, of wet weight. In some experiments, vessels were denuded of endothelium by gentle rubbing of the luminal surface, whereas in others, N^ω-nitro-L-arginine methyl ester (L-NAME) 0.1 mM, diphenylene iodonium 0.1 mM, or apocynin 3 mM were added 60 min before determining O2^− generation.

For another assay, the system named is TNF-α. In words: Plasma TNF-α ELISA. The format is in vivo, rat. Particulars: GK rats, LA chronic therapy. The procedure: Plasma TNF-α levels from various experimental groups were determined using a rat TNF-α ELISA kit, and tissue protein content was determined using bovine serum albumin as a standard.
(An ELISA detects its analyte on a solid surface through an enzyme-linked reagent.)

Experimental for NAD(P)H oxidase: Determination of NAD(P)H oxidase activity in the aorta was determined based on superoxide induced lucigenin photoemission. Enzyme assays were carried out in a final volume of 1 ml. containing (in mM) 50 phosphate buffer; pH 7.0, 1 EGTA, 150 sucrose, 0.5 lucigenin, 0.1 NAD(P)H and tissue homogenate. Enzyme reactions were initiated with the addition of lucigenin. Photoemission, expressed in terms of relative light units (RLU), was measured every 5 min. using a luminometer. All assays were carried out in the dark at room temperature.

As for `O=C(O)CCCCC1CCSS1` (stereo not drawn) [LA, alpha-lipoic acid], the “protection of cell viability from hydrogen peroxide” value in [1] was “protected”. Also, the “rate of gene expression of nox-1 subunit” value in the assay with nox-1 was “tended to reduce”. For the same compound, the “diabetic vascular proinflammatory phenotype, aortic expression of IL-6” value in the assay with IL-6 is reported as “partially reversed”. Moreover, the “oxidative stress-mediated damage to protein (protein-bound carbonyls)” value in the assay on protein-bound carbonyls was “partially reversed”. The NF-κB expression entry in the assay on NF-κB [2] and in the assay with NF-κB [3] was “significant increase” throughout. Further, in the assay with NAD(P)H oxidase, the “NAD(P)H oxidase driven O2− generation in homogenates of diabetic aorta” value is given as “significantly attenuated”. In the assay on aortic tissue, the “diabetes-mediated increase in aortic superoxide production” value is reported as “suppression”. Further, the “diabetes related up-regulation of TNF-α protein (plasma)” value with TNF-α is recorded as “Reversal”.
